Experimental findings from US8361998B2, “Compounds and their use as IKACh blockers” (AstraZeneca AB, priority 2010, dated 2013) are described below.

By IC50 is commonly meant the concentration needed to halve the response being measured. Low values mean greater potency, high ones weaker potency.

Some results are limits rather than exact numbers.

Assay [1] has as its system anaesthetized rabbits subjected to vagal stimulation. Put plainly: In vivo PD model, anaesthetized rabbits with vagal stimulation: right atrial effective refractory period (RAERP), QT. Also noted: species or system rabbit. As for the experimental part:
Rabbits were anaesthetized using ketalar and domitor (2.5 and 0.07 mg/kg, respectively) as an i.v. bolus followed by a maintenance i.v. infusion (11 and 0.33 mg/kg/h, respectively) and ventilated with room air. Two percutaneous polyethylene catheter (Venflon 0.8 mm, Viggo, Helsingborg, Sweden) for administration of anaesthetics and drug infusions, respectively, were inserted into marginal veins on the right and left ear. A polyethylene catheter (Intramedic PE 160 Clay Adams, Becton Dickinson, Sparks, Md., USA) was inserted into the left carotid artery and advanced to the level of the aortic arch for blood pressure recording (by means of a pressure transducer, Peter von Berg Medizintechnik Gmbh, Kirchseeon/Englharting, Germany) and for blood sampling. For recording of right atrial electrogram and for atrial pacing, a 4F quadripolar electrophysiological recording catheters (Electrophysiology catheter-Deflectable tip, Biosense Webster Inc, Johnson & Johnson, Diamond Bar, Calif., USA) was advanced into the right jugular vein and positioned high up in the right atrium (HRA). Electrodes were advanced via introducers (4F Fast-Cath haemostasis introducer, ST. Jude Medical, DAIG Division, Inc. Minnetonka, Minn., USA) correctly positioned through fluoroscopic guidance. The effective refractory period in the right atrium (RAERP) was determined at a stimulation current strength approximately 20% above the threshold for pacing the atria. A custom-made PC-based (AstraZeneca R&D, Mölndal, Sweden) programmable stimulator and constant current pulse generator (WPI Stimulus Isolator, World Precision Instruments, Sarasota, Fla., USA) were used for stimulation at one or two predefined basic cycle lengths (S1) of for example 200 and 300 ms. A premature extra stimulus (S2) was introduced after every 10th paced basic beat with increments of 2 ms until capture. […] For vagal stimulation, both vagal nerves were ligated and cut in the cervical region and propranolol (0.5 mg/kg) was administrated as an i.v. infusion to decrease sympathetic influence. Electrodes were inserted in the middle of the right vagal nerve to stimulate the efferent vagi. The RAERP was determined without or with vagal stimulation at 50% of maximal vagal response. Subsequent infusion of compound aimed to increase the RAERP with 20 ms during the first dose of two consecutive doses. The drug infusion was followed by a washout period of approximately 30-60 min. QT prolongation was recorded from surface electrocardiography (ECG). The effect on RAERP was measured several times during infusion and washout and blood samples were taken at each measurements. Effect and plasma concentration data was analysed accounting for a concentration-effect-time delay and the unbound plasma concentration (Ceu) increasing the RAERP by 20 ms was calculated.

Assay [2] has as its target T1, human ether-a-go-go-related gene (hERG)-encoded K+ channel (Homo sapiens, UniProt Q12809).
T1 construct: expressed in transfected cells; host or cells: Chinese hamster ovary K1 (CHO) cells
The experiment in a line: hERG inhibition, IonWorks HT, hERG-expressing CHO cells. Type of assay: cell-based. As for the experimental part:
Inhibition of the human ether-a-go-go-related gene (hERG)-encoded K^+ channel was determined using hERG-expressing Chinese hamster ovary K1 (CHO) cells on a IonWorks™ HT assay platform as described by M. H. Bridgland-Taylor et al. J. of Pharmacological and Toxicological Methods (2006); 54:189-199.

T1 sequence (Q12809 whole entry): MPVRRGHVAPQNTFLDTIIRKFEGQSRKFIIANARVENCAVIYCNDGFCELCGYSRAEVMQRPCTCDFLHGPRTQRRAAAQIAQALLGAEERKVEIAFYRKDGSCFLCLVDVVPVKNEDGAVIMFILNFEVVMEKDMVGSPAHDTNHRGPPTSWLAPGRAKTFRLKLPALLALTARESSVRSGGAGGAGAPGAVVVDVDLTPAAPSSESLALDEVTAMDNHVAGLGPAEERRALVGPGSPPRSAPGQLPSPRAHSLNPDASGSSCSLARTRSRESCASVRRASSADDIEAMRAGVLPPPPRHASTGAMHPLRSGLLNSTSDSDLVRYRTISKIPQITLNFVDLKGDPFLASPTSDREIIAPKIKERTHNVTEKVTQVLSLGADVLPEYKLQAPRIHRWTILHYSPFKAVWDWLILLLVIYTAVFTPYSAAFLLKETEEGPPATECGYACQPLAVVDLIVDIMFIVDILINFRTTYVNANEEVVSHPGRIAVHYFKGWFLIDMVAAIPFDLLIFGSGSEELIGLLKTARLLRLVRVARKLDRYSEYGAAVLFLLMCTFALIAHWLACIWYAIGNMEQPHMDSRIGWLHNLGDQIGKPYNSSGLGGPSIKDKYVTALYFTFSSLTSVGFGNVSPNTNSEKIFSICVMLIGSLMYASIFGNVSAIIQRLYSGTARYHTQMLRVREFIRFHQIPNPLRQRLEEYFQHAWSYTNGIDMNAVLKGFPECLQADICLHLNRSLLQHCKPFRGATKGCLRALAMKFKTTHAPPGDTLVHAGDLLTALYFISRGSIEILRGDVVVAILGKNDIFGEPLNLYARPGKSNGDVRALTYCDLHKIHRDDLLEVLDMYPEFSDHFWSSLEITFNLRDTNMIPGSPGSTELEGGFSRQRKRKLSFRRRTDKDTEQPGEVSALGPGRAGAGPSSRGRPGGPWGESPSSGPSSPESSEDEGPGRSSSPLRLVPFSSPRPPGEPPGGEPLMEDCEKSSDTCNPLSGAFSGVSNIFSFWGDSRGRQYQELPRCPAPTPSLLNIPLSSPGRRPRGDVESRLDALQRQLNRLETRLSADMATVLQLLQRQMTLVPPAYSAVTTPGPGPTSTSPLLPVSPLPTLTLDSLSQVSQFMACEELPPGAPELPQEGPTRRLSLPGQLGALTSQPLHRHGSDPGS

Consider `Cc1cc(C(=O)N(C)[C@H](CN2CCCC2)C(C)C)ccc1F` [Example 12.1, (S)-4-Fluoro-N,3-dimethyl-N-(3-methyl-1-(pyrrolidin-1-yl)butan-2-yl)benzamide-dihydroxysuccinate], for which the “Ceu 20 ms” value in assay [1] is 0.68 µM. The same molecule showed an IC50 in assay [2] above 100 µM.
Regarding `CC(C)[C@@H](CN1CCCC1)N(C)C(=O)c1ccc(F)cc1Cl` [Example 1.17, (S)-2-Chloro-4-fluoro-N-methyl-N-(3-methyl-1-(pyrrolidin-1-yl)butan-2-yl)benzamide], the “Ceu 20 ms” value in assay [1] is 1.40 µM. In assay [2], this molecule registered an IC50 above 100 µM.
For `CCC[C@@H](CN1CCC1)N(C)C(=O)c1ccc(F)c(C)c1` [Example 1.4, (S)-N-(1-(Azetidin-1-yl)pentan-2-yl)-4-fluoro-N,3-dimethyl-benzamide], the “Ceu 20 ms” value in assay [1] was 0.60 µM. Further, the IC50 in assay [2] was above 33 µM.
